The record followed here is patent US12275731B2, “Azaindole inhibitors of wild-type and mutant forms of LRRK2” (DANA-FARBER CANCER INSTITUTE, INC., priority 2018, dated 2025).

Assay in all cases: KinomeScan profiling
Assay type in all cases: binding

Experiment [1] addresses T1, ACVR2A (Homo sapiens, UniProt P27037).
T1 construct: purchased KinomeScan®
As to conditions: read-out: % control. In short, it runs like this:
(§1)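 Selectivity was assessed by binding competition at 1 μM against 468 kinases. Values below 35% of control define an interaction.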

The target in experiment [2] is T2, AXL (Homo sapiens, UniProt P30530).
T2 construct: purchased KinomeScan®
T2 sequence (P30530 26-894): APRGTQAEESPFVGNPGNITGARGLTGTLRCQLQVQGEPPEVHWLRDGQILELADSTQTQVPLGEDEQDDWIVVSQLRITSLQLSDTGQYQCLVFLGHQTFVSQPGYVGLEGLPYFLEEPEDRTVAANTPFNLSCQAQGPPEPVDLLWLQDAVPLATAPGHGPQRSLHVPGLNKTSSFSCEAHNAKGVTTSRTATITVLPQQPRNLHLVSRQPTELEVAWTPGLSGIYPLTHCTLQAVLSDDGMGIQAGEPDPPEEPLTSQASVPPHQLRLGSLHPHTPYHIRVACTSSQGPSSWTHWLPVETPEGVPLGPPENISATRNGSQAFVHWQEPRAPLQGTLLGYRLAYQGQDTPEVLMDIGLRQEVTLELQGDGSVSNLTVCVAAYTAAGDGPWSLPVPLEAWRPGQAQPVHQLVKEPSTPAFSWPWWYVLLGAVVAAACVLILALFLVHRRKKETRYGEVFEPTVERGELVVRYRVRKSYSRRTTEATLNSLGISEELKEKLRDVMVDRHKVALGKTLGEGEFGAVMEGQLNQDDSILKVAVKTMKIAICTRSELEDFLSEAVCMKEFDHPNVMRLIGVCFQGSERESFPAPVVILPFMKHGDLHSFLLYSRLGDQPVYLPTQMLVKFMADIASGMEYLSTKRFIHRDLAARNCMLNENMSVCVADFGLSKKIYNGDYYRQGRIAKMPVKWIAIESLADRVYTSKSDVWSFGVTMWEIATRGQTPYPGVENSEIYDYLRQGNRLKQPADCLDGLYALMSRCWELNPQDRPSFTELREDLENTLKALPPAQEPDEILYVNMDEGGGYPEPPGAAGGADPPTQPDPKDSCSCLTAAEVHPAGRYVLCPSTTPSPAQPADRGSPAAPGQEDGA
As to conditions: read-out: % control. The procedure, abridged:
as §1

In experiment [3] the target is T3, BMPR1B (Homo sapiens, UniProt O00238).
T3 construct: purchased KinomeScan®
As to conditions: read-out: % control. In short, it runs like this:
as §1

Experiment [4] has as its target T4, NEK1 (Homo sapiens, UniProt Q96PY6).
T4 sequence (Q96PY6 1-1258): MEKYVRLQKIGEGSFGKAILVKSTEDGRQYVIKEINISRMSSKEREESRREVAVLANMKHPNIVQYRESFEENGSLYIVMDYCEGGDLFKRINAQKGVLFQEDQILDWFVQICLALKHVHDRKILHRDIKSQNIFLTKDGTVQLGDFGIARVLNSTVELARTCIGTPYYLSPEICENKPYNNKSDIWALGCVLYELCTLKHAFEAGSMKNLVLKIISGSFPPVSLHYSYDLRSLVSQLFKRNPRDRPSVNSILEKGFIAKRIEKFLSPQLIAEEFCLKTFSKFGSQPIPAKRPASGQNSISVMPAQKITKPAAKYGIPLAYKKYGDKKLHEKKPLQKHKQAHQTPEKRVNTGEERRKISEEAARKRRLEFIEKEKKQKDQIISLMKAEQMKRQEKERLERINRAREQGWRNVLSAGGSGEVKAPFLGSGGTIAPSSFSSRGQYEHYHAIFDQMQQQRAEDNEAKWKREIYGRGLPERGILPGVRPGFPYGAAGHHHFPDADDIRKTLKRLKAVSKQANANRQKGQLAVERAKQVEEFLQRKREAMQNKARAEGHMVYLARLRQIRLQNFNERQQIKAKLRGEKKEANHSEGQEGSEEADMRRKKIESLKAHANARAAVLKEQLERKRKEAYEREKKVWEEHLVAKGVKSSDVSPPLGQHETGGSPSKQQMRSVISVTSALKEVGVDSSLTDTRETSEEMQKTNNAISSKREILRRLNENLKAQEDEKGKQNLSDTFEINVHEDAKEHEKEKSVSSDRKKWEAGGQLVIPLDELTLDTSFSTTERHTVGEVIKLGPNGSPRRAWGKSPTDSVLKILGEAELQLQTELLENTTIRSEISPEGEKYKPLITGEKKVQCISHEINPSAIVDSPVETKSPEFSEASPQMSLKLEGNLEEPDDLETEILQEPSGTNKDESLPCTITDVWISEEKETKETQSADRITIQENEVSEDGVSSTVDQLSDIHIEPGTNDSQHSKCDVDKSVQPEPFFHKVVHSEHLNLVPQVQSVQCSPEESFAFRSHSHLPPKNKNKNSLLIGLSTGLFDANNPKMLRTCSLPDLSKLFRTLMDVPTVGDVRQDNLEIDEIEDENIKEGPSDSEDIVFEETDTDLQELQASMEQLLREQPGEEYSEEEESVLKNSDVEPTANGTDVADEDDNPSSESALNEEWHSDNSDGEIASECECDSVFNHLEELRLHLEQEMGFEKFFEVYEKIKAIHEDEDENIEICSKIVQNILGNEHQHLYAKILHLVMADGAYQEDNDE
As to conditions: NEK1, 1 μM; read-out: % control. In short, it runs like this: as §1

Experiment [5] deals with T5, PIM1 (Homo sapiens, UniProt P11309).
T5 construct: purchased KinomeScan® (panel service)
The following applies: PIM1, 1 μM; read-out: % control. The procedure, abridged: as §1

Experiment [6] has as its target T6, SRMS (Homo sapiens, UniProt Q9H3Y6).
T6 construct: purchased KinomeScan® (panel service)
The following applies: read-out: % control. The procedure, abridged:
as §1

Experiment [7] concerns the target WEE2 (Homo sapiens, UniProt P0C1S8). As to conditions: WEE2, 1 μM; read-out: % control. The procedure, abridged: as §1

SMILES strings stand for the structures.

T5 sequence (P11309 whole entry): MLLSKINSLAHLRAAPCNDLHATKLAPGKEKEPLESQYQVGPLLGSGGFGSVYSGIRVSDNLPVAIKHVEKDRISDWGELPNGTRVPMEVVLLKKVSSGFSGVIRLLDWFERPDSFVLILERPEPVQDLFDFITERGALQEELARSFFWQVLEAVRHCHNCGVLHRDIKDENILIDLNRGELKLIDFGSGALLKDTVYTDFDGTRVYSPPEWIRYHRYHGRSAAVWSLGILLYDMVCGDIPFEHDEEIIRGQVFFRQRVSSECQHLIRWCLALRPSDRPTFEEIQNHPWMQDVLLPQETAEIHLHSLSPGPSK
T3 sequence (O00238 14-502): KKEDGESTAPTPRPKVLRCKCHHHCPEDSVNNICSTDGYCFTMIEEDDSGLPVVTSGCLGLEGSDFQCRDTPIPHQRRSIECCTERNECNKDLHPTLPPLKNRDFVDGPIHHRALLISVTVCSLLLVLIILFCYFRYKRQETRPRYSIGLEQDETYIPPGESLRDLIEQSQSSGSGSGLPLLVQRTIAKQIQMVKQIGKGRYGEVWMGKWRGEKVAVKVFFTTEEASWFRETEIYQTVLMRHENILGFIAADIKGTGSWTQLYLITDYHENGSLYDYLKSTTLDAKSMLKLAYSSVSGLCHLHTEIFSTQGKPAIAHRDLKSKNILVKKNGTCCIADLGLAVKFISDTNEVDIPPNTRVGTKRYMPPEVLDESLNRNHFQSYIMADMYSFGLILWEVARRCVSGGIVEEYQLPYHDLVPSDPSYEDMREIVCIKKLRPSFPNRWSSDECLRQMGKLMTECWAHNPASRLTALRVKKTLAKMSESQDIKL
WEE2, sequence (P0C1S8 whole entry): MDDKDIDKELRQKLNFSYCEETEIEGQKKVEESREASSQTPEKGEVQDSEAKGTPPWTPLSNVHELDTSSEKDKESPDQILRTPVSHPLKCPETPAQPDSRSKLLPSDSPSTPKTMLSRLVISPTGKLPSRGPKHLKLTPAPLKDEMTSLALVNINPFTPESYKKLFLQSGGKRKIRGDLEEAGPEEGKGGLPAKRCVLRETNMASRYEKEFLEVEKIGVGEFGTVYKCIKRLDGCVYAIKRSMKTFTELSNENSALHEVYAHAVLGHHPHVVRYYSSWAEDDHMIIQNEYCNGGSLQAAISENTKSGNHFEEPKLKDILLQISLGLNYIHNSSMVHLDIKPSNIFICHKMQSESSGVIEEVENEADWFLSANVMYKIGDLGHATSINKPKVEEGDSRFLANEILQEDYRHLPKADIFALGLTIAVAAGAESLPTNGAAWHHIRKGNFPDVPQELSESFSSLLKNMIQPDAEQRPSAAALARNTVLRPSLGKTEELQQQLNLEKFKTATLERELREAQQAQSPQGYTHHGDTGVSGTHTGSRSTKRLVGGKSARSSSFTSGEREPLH
T1 sequence (P27037 20-513): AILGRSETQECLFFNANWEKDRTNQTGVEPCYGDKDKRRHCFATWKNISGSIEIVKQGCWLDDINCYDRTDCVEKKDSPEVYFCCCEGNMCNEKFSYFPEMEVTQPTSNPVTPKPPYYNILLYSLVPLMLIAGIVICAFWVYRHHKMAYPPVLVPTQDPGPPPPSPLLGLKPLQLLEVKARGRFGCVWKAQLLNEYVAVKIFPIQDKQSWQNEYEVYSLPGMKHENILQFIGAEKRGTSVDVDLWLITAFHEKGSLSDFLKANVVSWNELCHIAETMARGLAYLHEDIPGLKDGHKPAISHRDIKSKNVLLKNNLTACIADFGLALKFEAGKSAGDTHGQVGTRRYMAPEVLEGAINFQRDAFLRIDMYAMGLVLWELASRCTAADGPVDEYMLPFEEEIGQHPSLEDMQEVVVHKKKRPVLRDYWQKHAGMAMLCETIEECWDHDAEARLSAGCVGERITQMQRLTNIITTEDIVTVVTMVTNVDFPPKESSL
T6 sequence (Q9H3Y6 whole entry): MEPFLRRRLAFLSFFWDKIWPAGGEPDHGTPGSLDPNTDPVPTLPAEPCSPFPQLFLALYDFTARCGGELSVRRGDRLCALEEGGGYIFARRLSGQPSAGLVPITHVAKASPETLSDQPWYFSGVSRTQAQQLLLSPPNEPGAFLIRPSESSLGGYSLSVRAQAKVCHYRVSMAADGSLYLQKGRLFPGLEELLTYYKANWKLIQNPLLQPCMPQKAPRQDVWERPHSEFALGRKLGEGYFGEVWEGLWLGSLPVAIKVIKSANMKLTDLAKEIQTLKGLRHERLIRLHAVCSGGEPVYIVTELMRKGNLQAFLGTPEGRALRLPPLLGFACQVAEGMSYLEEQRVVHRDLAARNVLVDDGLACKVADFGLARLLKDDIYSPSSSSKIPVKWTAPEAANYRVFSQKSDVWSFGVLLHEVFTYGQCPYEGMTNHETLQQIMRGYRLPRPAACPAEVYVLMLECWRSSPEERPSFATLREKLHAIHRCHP

As to `CNc1c(-c2ccc(C(=O)N3CCC(N4CCOCC4)CC3)cc2)cnc2[nH]cc(Cl)c12` [Compound 96, (4-(3-chloro-4-(methylamino)-1H-pyrrolo[2,3-b]pyridin-5-yl)phenyl)(4-morpholinopiperidin-1-yl)methanone], the remaining binding at 1 µM came to 97% in experiment [1]; 33% in experiment [2]; 54% in experiment [3]; 100% in experiment [4]; 100% in experiment [5]; 100% in experiment [6]. Besides, the remaining binding at 1 µM in experiment [7] was 100%.

`O=C(c1ccc(-c2cnc3[nH]cc(Cl)c3c2NC2CCCC2)cc1)N1CCC(N2CCOCC2)CC1` [Compound 101, (4-(3-chloro-4-(cyclopentylamino)-1H-pyrrolo[2,3-b]pyridin-5-yl)phenyl)(4-morpholinopiperidin-1-yl)methanone]: the remaining binding at 1 µM in experiment [1] came out at 95%; in experiment [2], 40%; in experiment [3], 95%; in experiment [4] it was 100%; in experiment [5] it was 95%; in experiment [6], 72%. Also, in experiment [7], the remaining binding at 1 µM worked out at 94%.

`CNc1c(-c2cnn([C@H]3CCN(C(C)=O)C[C@@H]3F)c2)cnc2[nH]cc(Cl)c12` [Compound 77, 1-((3S,4S)-4-(4-(3-chloro-4-(methylamino)-1H-pyrrolo[2,3-b]pyridin-5-yl)-1H-pyrazol-1-yl)-3-fluoropiperidin-1-yl)ethan-1-one]: the remaining binding at 1 µM in experiment [1] came out at 99%; in experiment [2], 8.5%; in experiment [3], 47%; in experiment [4], 96%; in experiment [5] it was 95%; in experiment [6], 90%. Further, in experiment [7], the remaining binding at 1 µM is 95%.
